We go through one compound from US9926293B2, “Multivalent RAS binding compounds” (THE TRUSTEES OF COLUMBIA UNIVERSITY IN THE CITY OF NEW YORK, priority 2014, dated 2018).

The target of one data set is T1, GppNHp-loaded RALA (Homo sapiens, UniProt P11233).
T1 construct: purchased Abcam ab102555
Kind of data set: Microscale thermophoresis on GppNHp-loaded RALA. It is filed as binding. The note with it: MST, up to 190 μM. The procedure: (§1) KRAS^G12D (250 μM) in 25 mM HEPES, 100 mM sodium chloride, 2 mM TCEP with 20 mM EDTA and 1 mM GppNHp was shaken at 220 rpm at 30° C. to remove the endogenous nucleotide, The solution was placed on ice for 2 minutes prior to the addition of 65 mM MgCl2. After an additional 10 minutes incubation on ice, 200 uL of a 10 uM solution of KRAS^G12D was combined with 200 uL of a 20 uM solution of NT-647-NHS-ester dye (from a 652.4 μM stock). The protein/dye mixture was rotated at 4° C. for 30 minutes, before being separated from the excess dye and buffer exchanged into 25 mM Tris, 100 mM sodium chloride, 2 mM TCEP, and 5 mM MgCl2 via a nap-5 column. The test compounds were arrayed across a 16-point dilution series consisting of 1.5% DMSO with 25 mM Tris, 100 mM NaCl, 2 mM TCEP, 5 mM MgCl2 and 0.05% tween-20. Thermophoretic movement of the fluorescently labeled protein with the inhibitors was performed using a Monolith NT.115 (Nanotemper Technologies). RALA and RHOA were purchased commercially from Abcam (RALA CN:ab102555, RHOA CN:ab101594).
To provide evidence that the compound indeed was selective for RAS GTPases, MST binding measurements were performed on GppNHp-loaded RHEB, RHOA and RALA (FIG. 14J).
A general note: In MST a laser heats a spot of the sample, and binding alters the fluorescence response.

Data set [1] deals with primary T-ALL cells with mutant NRAS (G13V and G13D). Kind of data set: Viability of patient-derived T-ALL samples cultured in vitro, mutant NRAS. The note with it: Homo sapiens, 72 hours, relative to vehicle. It counts as cell-based. The procedure:
Primary Cell Co-Culture and In Vitro Cell Viability Assays.
Cells were harvested 72 hours after treatment and analyzed cell viability using the BD cell viability kit with liquid counting beads (BD Bioscience) gating out stroma cells (GFP+), dead cells and particles (PI+). We acquired data using a FACSCanto II flowcytometer (BD Bioscience) and analyzed it using FlowJo software (Tree Star, Inc.). Viability data is represented as % relative to vehicle treatment.

For a further data set, the target named is T2, KRAS^G12D I36N (Homo sapiens, UniProt P01116, G12D/I36N).
T2 construct: His6 (N); made in house
T2 sequence (P01116 1-169 isoform P01116-2 G12D/I36N): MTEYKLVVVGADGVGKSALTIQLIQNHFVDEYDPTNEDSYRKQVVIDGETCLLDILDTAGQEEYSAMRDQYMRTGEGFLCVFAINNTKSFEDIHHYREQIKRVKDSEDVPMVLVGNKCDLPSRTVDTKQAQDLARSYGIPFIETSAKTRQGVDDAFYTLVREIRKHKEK
Kind of data set: Microscale thermophoresis on binding-site mutant KRAS^G12D I36N. The note with it: MST. The procedure:
Mutagenesis of the KRAS^G12D plasmid was performed using a QuikChange XL site-directed mutagenesis kit from Agilent technologies, according to the manufacturer's protocol. Primers were designed using the Agilent QuikChange Primer Design application and purchased from Integrated DNA Technologies. KRAS^G12D D38A forward primer 5′ ATATGATCCAACAATAGAGGCTTCCTACAGGAAGCAAGTAG 3′ (SEQ ID NO: 66), KRAS^G12D D38A reverse primer 5′ CTACTTGCTTCCTGTAGGAAGCCTCTATTGTTGGATCATAT 3′ (SEQ ID NO: 67), KRAS^G12D I36N forward primer 5′ CATTTTGTGGACGAATATGATCCAACAAATGAGGATTCCTACAGG 3′ (SEQ ID NO: 68), KRAS^G12D I36N reverse primer 5′ CCTGTAGGAATCCTCATTTGTTGGATCATATTCGTCCACAAAATG 3′ (SEQ ID NO: 69). DNA sequencing was performed to confirm the correct amino acid sequence of the construct (GeneWiz, Inc.).
as §1, with “CN:ab101594). […]” for “CN:ab101594).”

The next data set in a line: Microsomal stability. The note with it: mouse liver microsomes, 45 minute incubation. It counts as in vitro ADME. The procedure: Test compounds (0.5 μM) were incubated at 37° C. for up to 45 minutes in 50 mM of potassium phosphate buffer (pH 7.4) containing microsomal protein (0.5 mg/mL) and an NADPH generating system (0.34 mg/mL β-nicotinamide adenine dinucleotide phosphate (NADP), 1.56 mg/mL glucose-6-phosphate, 1.2 units/mL glucose-6-phosphate dehydrogenase). At 0, 5, 15, 30 and 45 minute intervals an aliquot was taken and quenched with acetonitrile (ACN) containing an internal standard. No-cofactor controls at 45 minutes were prepared. Following completion of the experimentation, the samples were analyzed by LC-MS/MS using a Shimadzu HPLC and an Applied Biosystem AP 14000.
For orientation: Liver microsomes are vesicles of endoplasmic reticulum, rich in cytochrome P450 enzymes.

In data set [2] the test system is RAS-RAF and RAS-PI3K interaction in BJeLR cells. Kind of data set: Immunoprecipitation with HRAS antibody, blot for cRAF and PI3Kgamma. It is filed as cell-based. Conditions: 10% FBS. The procedure:
BJeLR cells were seeded 16 hours prior to use in 10% FBS in DMEM. […] After 6 hours cells were washed twice with ice cold buffer (25 mM tris, 100 mM NaCl, 1 mM TCEP, 5 mM MgCl2, 0.1% tween-20 and 1 protease inhibitor/25 mL). Cells were scrapped, pelleted at 13,000 rpm for 10 minutes at 4° C., then passed through a 26 gauge needle several times. The solution was spun down a second time at 13,000 rpm for 15 minutes at 4° C., to remove unlysed cells and debris. HRAS antibody (Santa cruz, SC-520) was then added to the lysate (1:100) and the solution was rocked at 4° C. for 16 hours. Protein A agrose beads were then added and the solution was rotated at 4° C. for an additional 6 hours. The solutions were spun down at 1500×g for 2 minutes and the supernatant was removed by syringe. The beads were washed twice by this process with buffer, then resuspended in 2.5×SDS.

In the next data set the test system is MDA-MB-231 xenografts. Kind of data set: Mouse xenograft, therapeutic study. It counts as in vivo, athymic nude mice. The procedure: Eight week old nude female mice were injected with 7 million MDA-MB-231 cells.
For the therapeutic study, athymic nude mice (eight weeks; Charles River Laboratories) were injected with 7 million MDA-MB-231 cells subcutaneously. […] Tumor size was measured by electronic caliper every 2 days and calculated using the formula: 0.523×Length×width^2.

T1 sequence (P11233 whole entry): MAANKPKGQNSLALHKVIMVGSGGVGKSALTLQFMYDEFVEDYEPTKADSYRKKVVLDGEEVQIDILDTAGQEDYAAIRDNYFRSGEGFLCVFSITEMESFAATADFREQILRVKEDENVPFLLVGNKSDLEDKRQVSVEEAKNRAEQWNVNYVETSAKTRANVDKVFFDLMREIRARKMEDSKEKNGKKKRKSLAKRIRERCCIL

Usually viability stands for the share of living cells, or the viability signal relative to a control. Higher therefore signals less harm to the cells. The term Kd denotes the equilibrium constant for the complex coming apart. Low readings indicate tighter binding, high ones weaker binding. For the compound `NC1(C(=O)NCCCn2cc(-c3ccc(OC(F)(F)F)cc3)c3cc(CN4CCN(Cc5c(Cl)cccc5Cl)CC4)ccc32)CCNCC1` [Compound 31MEW44, 4-amino-N-(3-(5-((4-(2,6-dichlorobenzyl)piperazin-1-yl)methyl)-3-(4-(trifluoromethoxy)phenyl)-1H-indol-1-yl)propyl)piperidine-4-carboxamide], at GppNHp-loaded RALA, the binding entry is listed as “no binding was observed”. This compound showed a viability at 5 µM in data set [1] of 20 to 40%. Moreover, the Kd at KRAS^G12D I36N (31MEW44, FIG. 14H) stood at 200 µM; on KRAS^G12D I36N (31MEW44, first experiment) it was 1.1 µM. The compound remaining result in “Microsomal stability” is listed as “all of 31MEW44 remained”. Besides, the “co-immunoprecipitated cRAF and PI3K” value in data set [2] is “decreased levels of co-immunoprecipitated cRAF and PI3K”. Further, the tumor size entry is “almost complete elimination of the tumor” with MDA-MB-231 xenografts (intravenous and intraperitoneal injections 30 mg/kg, 4 IV and 6 IP doses); “almost complete elimination of the tumor” in the data set with MDA-MB-231 xenografts (orally 180 mg/kg, 10 doses over two weeks).
